Measured values reported in patent publication US9598412B2, “Spiroindoline compounds for use as anthelminthics” (Intervet, Inc., priority 2010, dated 2017).
Like-named read-outs stand apart in the source and are kept apart here.

Test system: Haemonchus contortus
Assay: Efficacy against Haemonchus contortus in jirds
Assay type: in vivo
Conditions: 72 h, jirds (Meriones unguiculatus), necropsy three days after treatment, read-out: reduction of the Haemonchus contortus count (mean larvae count in stomach vs untreated control group)
Description: Compounds according to this invention (numbers refer to the compound number in Table 1) were tested in vivo using Haemonchus contortus in jirds (Meriones unguiculatus). The jirds were orally infected with approximately 750-3.000 third-stage larvae of Haemonchus contortus. Ten days after infection, the jirds in the treatment groups were treated once either orally or subcutaneously with compounds at a dose of 10 mg or 50 mg per kg bodyweight. Three days after treatment, the jirds were necropsied, and the larvae burden in the stomach was determined. During the study no side-effects in jirds were observed. The efficacy was defined as the reduction of the mean larvae count in the infected jirds of the treatment group in comparison to the infected jirds in an untreated control group (negative control).

[1] = sc, treated once subcutaneously at 50 mg/kg bw ten days after infection
[2] = po, treated once orally at 10 mg/kg ten days after infection
[3] = po, treated once orally at 50 mg/kg bw ten days after infection

SMILES | inhibition in vivo at 50 mg/kg [1] | inhibition in vivo at 10 mg/kg [2] | other results
O=C(c1ccnc(Cl)c1)N1CC2(CCN(C/C=C/c3ccc(Cl)c(Cl)c3)CC2)c2cc(Cl)ccc21 [Compound 27] | ≥ 50% |  | 
Cc1ccc2c(c1)C1(CCN(C/C=C/c3ccc(Cl)cc3F)CC1)CN2C(=O)c1ccnc(Cl)c1 [Compound 87] |  | ≥ 50% | 
O=C(c1ccnc(Cl)c1)N1CC2(CCN(C/C=C/c3ccc(Cl)c(Cl)c3)CC2)c2cc(SC(F)(F)F)ccc21 [Compound 77] |  | ≥ 50% | 
O=C(c1ccnc(Cl)c1)N1CC2(CCN(C/C=C/c3ccc(F)cc3F)CC2)c2c1ccc(Cl)c2Cl [Compound 20] | ≥ 50% |  | 
O=C(c1ccnc(Cl)c1)N1CC2(CCN(C/C=C/c3ccc(F)cc3F)CC2)c2cc(C(F)(F)F)ccc21 [Compound 12] |  |  | inhibition in vivo at 50 mg/kg [3]: ≥ 50%
Cc1ccc2c(c1)C1(CCN(C/C=C/c3ccc(Cl)c(Cl)c3)CC1)CN2C(=O)c1ccnc(Cl)c1 [Compound 71] |  |  | inhibition in vivo at 10 mg/kg (sc, treated once subcutaneously at 10 mg/kg ten days after infection): ≥ 50%
O=C(c1ccnc(Cl)c1)N1CC2(CCN(C/C=C/c3ccc(F)cc3F)CC2)c2c(Cl)cc(Cl)cc21 [Compound 19] |  |  | inhibition in vivo at 50 mg/kg [3]: ≥ 50%
O=C(c1ccnc(Cl)c1)N1CC2(CCN(C/C=C/c3cccc(Cl)c3Cl)CC2)c2cc(Cl)ccc21 [Compound 25, [5-chloro-1′-[(E)-3-(2,3-dichlorophenyl)allyl]spiro[indoline-3,4′-piperidine]-1-yl]-(2-chloro-4-pyridyl)methanone] | ≥ 50% |  | 
O=C(c1ccnc(Cl)c1)N1CC2(CCN(C/C=C/c3ccc(Cl)cc3)CC2)c2cc(C(F)(F)F)ccc21 [Compound 42] |  | ≥ 50% | 
